These results are taken from patent publication US11000533B2, “Connective tissue monitoring, compositions for connective tissue treatment and methods for treating connective tissue” (priority 2011, dated 2021).

Values joined by “and” are separate entries in the source; they are usually repeats but may differ in a detail not shown here. Equal values may be shown once.

For one experiment, the system named is acute tendon injury. Description: Time until positive clinical response (disappearance of swelling, heat and pain on palpation) after medication institution. The class given is in vivo, horse. To be noted: for Time until Clinical Response: acute tendon injury. The protocol: An acute tendon injury in a horse, is also known as a “Bowed Tendon”. This injury is clinically characterized by visible swelling of the tendon, heat to touch, as well as pain on palpation of the tendon. Clinical improvement of such a tendon injury is manifest by the diminution and ultimate absence of any swelling, heat and pain on palpation. The trials detailed above were carried out using the “polypaste” (multiple medications) approach to tendon injury in horses using “Tendon Guard Intense”. Three medications were used in initial tendon injury treatment: a proinflammatory cytokine inhibitor (Doxycycline 5 gm BD), an antioxidant or catechin (Green Tea extract/EGCG 5 gm BD) and an anti-inflammatory (Ibuprofen 5 gm BD). Throughout the testing process, a cohort of horses, were unable to take all of the individual ingredients planned, due to a number of reasons: The individual medication contraindications outlined, led to a cohort of horses in initial testing who consequently only received a single drug or a combination of two drugs (not three) to treat their acute tendon injury. These horses received either: All horses were carefully examined daily following acute injury and after institution of medication, by either an experienced veterinarian or trainer, for the presence of all of swelling, heat and pain on palpation of the tendon. A positive clinical response to treatment was defined as the absence of all three of swelling, heat and pain on palpation. The time from medication institution until disappearance of all three signs of swelling, heat and pain on palpation was recorded, as this was deemed the ultimate marker of clinical improvement of the tendon injury. Horses were immediately put back into light exercise once these acute signs had disappeared.

A further experiment has as its system tendon injury. Kind of experiment: Additional studies with alternative combinations: resolution of pain and swelling. The class given is in vivo, horse. To be noted: dose of 450 mg/day. The protocol:
Additional studies have been performed with alternative anti-inflammatories and alternative NSAIDs. It is desirable to avoid using ibuprofen. The reason is ibuprofen stores in tissue and causes positive drug tests in racing horses. Copper indomethacin (CuIndomethacin) has been used as the anti-inflammatory and/or NSAID.
One of the advantages of CuIndomethacin is that it can be used in lower dosages. A dose of 200 mg (⅕ gram) has been used. It is hypothesized that a therapeutic effect may be achieved with 50 mg or ¼ of the usual dose or less by way of example.
In some embodiments, it is desirable to avoid using Doxycycline. The reason for this is that there is a worldwide push not to use antibiotics for purposes which are not infection related. For this reason, in som embodiments, curcumin, which is also a proinflammatory cytokine inhibitor, has been used at a dose of 450 mg/day with great success.

Regarding `C[C@H]1c2cccc(O)c2C(=O)C2=C(O)[C@]3(O)C(=O)C(C(N)=O)=C(O)[C@@H](N(C)C)[C@@H]3[C@@H](O)[C@@H]21` [Doxycycline], the “Time until Clinical Response” value in the experiment on acute tendon injury (individual horses (6), Doxycycline alone 5 gms BD) was 27 days (2×) and 21 days (2×) and 24 days and 28 days. Further, the “Mean time until a positive clinical response to treatment” value with acute tendon injury (mean of 6 horses, Doxycycline alone 5 gms BD) is recorded as “(24.66 days)”.

As to `O=C(O[C@@H]1Cc2c(O)cc(O)cc2O[C@@H]1c1cc(O)c(O)c(O)c1)c1cc(O)c(O)c(O)c1` [EGCG, epigallocatechin gallate], the “Time until Clinical Response” value with acute tendon injury (individual horses (5), EGCG alone 5 gms BD) was 24 days and 21 days (2×) and 28 days and 31 days. The “Mean time until a positive clinical response to treatment” value with acute tendon injury (mean of 5 horses, EGCG alone 5 gms BD) is “(25 days)”.

For `COc1cc(/C=C/C(=O)CC(=O)/C=C/c2ccc(O)c(OC)c2)ccc1O` [curcumin], the “Outcome of use as proinflammatory cytokine inhibitor in place of doxycycline” value in the experiment on tendon injury was “great success”.

With `CC(C)Cc1ccc(C(C)C(=O)O)cc1` (stereo not shown) [Ibuprofen], the “Time until Clinical Response” value in the experiment on acute tendon injury (individual horses (8), Ibuprofen alone 5 gm BD) was 20 days and 25 days and 19 days (2×) and 18 days and 23 days and 27 days and 24 days. Moreover, the “Mean time until a positive clinical response to treatment” value with acute tendon injury (mean of 8 horses, Ibuprofen alone 5 gm BD) is reported as “(21.9 days)”.
